Drawing on ChEMBL document CHEMBL3272250, “Quinoline derivatives as antiallergy agents. 2. Fused-ring quinaldic acids” (1977), this text covers ED50 and Ratio for 21 compounds.

Structures are written as SMILES. Where only a bound is given, the exact number is not on record here.

For assay [1], the system named is Rattus norvegicus. As to the kind of experiment: Antiallergic activity against anti-egg albumin homocytotropic antibody injected Sprague-Dawley rat assessed as inhibition of passive cutaneous anaphylaxis reaction administered iv at the time of egg albumin antigen challenge or ip 30 mins prior to egg albumin antigen challenge. Type of assay: functional. The conditions noted are these: read-out: ID50 (the source's name).

The species named for assay [2] is Rattus norvegicus. As to the kind of experiment: Ratio of cromolyn sodium ID50 to compound ID50 for inhibition of passive cutaneous anaphylaxis reaction in Sprague-Dawley rat. Type of assay: functional.

In the case of `O=C(O)c1cc(=O)c2cc3c(=O)cc(C(=O)O)[nH]c3c(Cl)c2[nH]1`, in the assay on Rattus norvegicus [1], the ED50 was determined as 0.05 mg/kg. On to `O=C(O)c1cc(=O)c2c(ccc3[nH]c(C(=O)O)cc(=O)c32)[nH]1`, for which, in the assay on Rattus norvegicus [1], the ED50 was determined as 2.5 mg/kg. Same read-out and setting: as for `Cc1c(C(=O)O)[nH]c2ccc3[nH]c(C(=O)O)c(C)c(=O)c3c2c1=O`, the figure is 10 mg/kg. On the same count and under the same terms, the value for `O=C(O)c1cc(=O)c2c(ccc3c(=O)cc(C(=O)O)[nH]c32)[nH]1` was 1 mg/kg.

In the case of `O=C(O)c1cc(=O)c2c(cc(C(=O)O)c3c(=O)cc(C(=O)O)[nH]c32)[nH]1`, in the assay with Rattus norvegicus [1], the ED50 amounted to 10 mg/kg. On the same count and under the same terms, as for `CCCCCc1cc2c(=O)cc(C(=O)O)[nH]c2c2c(=O)cc(C(=O)O)[nH]c12`, the figure is 0.05 mg/kg; as for `Cc1c2[nH]c(C(=O)[O-])cc(=O)c2cc2c(=O)cc(C(=O)[O-])[nH]c12.[Na+].[Na+]`, 0.25 mg/kg. In the case of `N#Cc1c2[nH]c(C(=O)O)cc(=O)c2cc2c(=O)cc(C(=O)O)[nH]c12`, in the assay on Rattus norvegicus [1], the ED50 came to 0.05 mg/kg. Same read-out and setting: as for `O=C(O)c1cc(=O)c2cc3c(=O)cc(C(=O)O)[nH]c3c(F)c2[nH]1`, the figure is 0.5 mg/kg; as for `COc1c2[nH]c(C(=O)O)cc(=O)c2cc2c(=O)cc(C(=O)O)[nH]c12`, 0.1 mg/kg. `Cc1c2c(=O)cc(C(=O)[O-])[nH]c2c(Cl)c2[nH]c(C(=O)[O-])cc(=O)c12.[Na+].[Na+]`: the Ratio in the assay listed under Rattus norvegicus [2] is listed as above 250. Further, the ED50 in the assay with Rattus norvegicus [1] amounted to 0.01 mg/kg.

Turning to `O=C([O-])c1cc(=O)c2cc3c(=O)cc(C(=O)[O-])[nH]c3c(C(=O)O)c2[nH]1.[Na+].[Na+]`, the ED50 with Rattus norvegicus [1] was 0.1 mg/kg.

Regarding `Cc1c(C(=O)[O-])[nH]c2c(C)c3[nH]c(C(=O)O)c(C)c(=O)c3cc2c1=O.[Na+]`, the ED50 in the assay with Rattus norvegicus [1] stood at 5 mg/kg.

Take `O=C(O)c1cc(=O)c2c(C(F)(F)F)c3c(=O)cc(C(=O)O)[nH]c3c(Cl)c2[nH]1`: the ED50 with Rattus norvegicus [1] stood at 5 mg/kg. The same measure, in the same setting: as for `O=C(O)c1cc(=O)c2c([nH]1)c1c(=O)cc(C(=O)O)[nH]c1c1c(=O)cc(C(=O)O)[nH]c21`, the figure is 0.5 mg/kg. Turning to `O=C(O)c1cc(=O)c2ccc3c(ccc4c(=O)cc(C(=O)O)[nH]c43)c2[nH]1`, in the assay filed under Rattus norvegicus [2], the Ratio was found to be 500. The ED50 in the assay on Rattus norvegicus [1] worked out at 0.005 mg/kg. On to `O=C(O)c1cc(=O)c2cc(Cl)c3c(ccc4c(=O)cc(C(=O)O)[nH]c43)c2[nH]1`, for which, in the assay on Rattus norvegicus [1], the ED50 is 0.05 mg/kg. Take `N#Cc1c2c(=O)cc(C(=O)O)[nH]c2c(Cl)c2[nH]c(C(=O)O)cc(=O)c12`: in the assay with Rattus norvegicus [1], the ED50 was 0.05 mg/kg.

Regarding `CCCCc1cc2c(=O)cc(C(=O)O)[nH]c2c2c(=O)cc(C(=O)O)[nH]c12` [BUFROLIN], the Ratio in the assay filed under Rattus norvegicus [2] stood at 500. Besides, the ED50 in the assay with Rattus norvegicus [1] was 0.005 mg/kg. As to `O=C([O-])c1cc(=O)c2c(OCC(O)COc3cccc4oc(C(=O)[O-])cc(=O)c34)cccc2o1.[Na+].[Na+]` [CROMOLYN SODIUM], the ED50 in the assay on Rattus norvegicus [1] was 2.5 mg/kg. The same measure, in the same setting: as for `O=C(O)c1ccc2ccccc2n1` [QUINALDIC ACID], the figure is 50 mg/kg.
